According to patent US5873359A, “Methods and devices for treating pulmonary vasoconstriction and asthma” (The General Hospital Corporation, priority 1994, dated 1999):
Read-outs that look alike come from different tables or passages of the source.

Experiments:
[1] = tested on: non-constricted human lung; assay: 40 ppm NO in healthy volunteers breathing air (non-constricted lung); type: in vivo
Method: (§1) The effects of breathing 40 ppm NO were studied in five awake, healthy human volunteer subjects inhaling various gas mixtures for 10 min periods, with measurements starting at 6 min.

[2] = tested on: hypoxia-induced pulmonary vasoconstriction; assay: 40 ppm NO in healthy volunteers breathing 12% O2 (hypoxic, vasoconstricted lung); type: in vivo, human
Method: as §1

[3] = tested on: persistent pulmonary hypertension of the newborn (PPHN); type: in vivo, human
Method: First subject. Through compassionate use, nitric oxide was administered to an infant suffering from persistent pulmonary hypertension and congenital heart disease. As a result of prolonged ventilation, absence of a preductal arterial blood sampling site, and the existence of the atrial-ventricular (AV) canal, the patient was not included in the PPHN study mentioned above.
The patient was a 3225 gm, full term person who had been treated with extracorporeal membrane oxygenation (ECMO) because of the severity of their congenital heart disease and profound hypoxemia. They had been taken off ECMO and was being maintained intubated and ventilated in the newborn intensive care unit. They subsequently became progressively hypoxemic, as reflected in their post-ductal pulse oximetry (POX) values. By the time they were taken to the catheterization laboratory to confirm the existence of the A-V canal and to determine if some emergent cardiac surgery was needed, they were receiving maximal medical and ventilatory life support and remained dangerously hypoxemic. Under these circumstances, we were granted consent to treat the patient with nitric oxide.
Upon arrival to the catheterization laboratory, the patient was extremely cyanotic. They were treated with fentanyl, oxygen, hyperventilation and intravenous fluid boluses to stabilize them prior to administering NO.
We utilized a regulator to step-down the pressure of the NO into a blender, which allowed us to adjust the relative amounts of the 800 ppm NO/N2 and 100% N2 supplies. Treating the patient with pure oxygen, we increased the flow of N2 through a flow regulator into the inspiratory circuit of the breathing cicuit until the FI O2 was 0.9. This provided a 1:10 dilution of the nitrogen gas. We then used the blender to adjust the relative amounts of N2 and […] to provide 0 to 80 ppm of NO.

[4] = tested on: pulmonary hypertension in ARDS; assay: Inhaled NO versus i.v. prostacyclin in adult with ARDS (first subject); type: in vivo, human; conditions: for QVA /QT: sulphur hexafluoride, from 38%
Method: First subject. The patient had suffered for three weeks from adult respiratory distress syndrome (ARDS) due to aspiration pneumonia. There was diffuse pulmonary edema and a large QVA /QT (30%). After 21 days of venovenous extracorporeal membrane oxygenator support (3 liters/min blood flow), the mean PAP was 55 mm Hg.
The short term effects of inhaled nitric oxide were compared with those of i.v. prostacyclin (PGI2; 5ng/kg/min). Mean pulmonary arterial pressure (PAP), right ventricular ejection fraction (RVEF) and gas exchange variables were evaluated. RVEF was assessed by thermodilution, and gas exchange alterations were analyzed using the multiple inert gas elimination technique (MIGET). MIGET and RVEF date were obtained on two different occasions. Ventilator settings were tidal volume 6 ml/kg, respiratory rate 14/min, Fi O2 0.4-0.48 and 5 cm H2 O of PEEP (positive end expiratory pressure).

[5] = air (21% O2) + 40 ppm NO, n = 5, X ± S.D.
[6] = NO 80 ppm, restarted after OFF #1

For `[N]=O` [NO, nitric oxide], the “pulmonary or systemic vasodilatory effect” value ([1]; 40 ppm NO, normal (21% v/v) O2) was “no pulmonary or systemic vasodilatory effect”, the PVR ([1]; air (21% O2) + 40 ppm NO, n = 5) was 0.61 mmHg · min/l and the CO [1, 5] was 6.40 ± 0.88 L/min. For the same molecule, the CVP [1, 5] was 6.3 ± 1.7 mmHG, the MAP [1, 5] was 88.0 ± 3.7 mmHg and the PAP [1, 5] was 14.0 ± 1.8 mmHg. For the same molecule, the PCWP [1, 5] was 10.1 ± 2.5 mmHg, the PaCO2 [1, 5] was 38 ± 5 mmHg and the PaO2 [1, 5] was 94.7 ± 16.3 mmHg. For the same molecule, the SaO2 [1, 5] was 96.0 ± 1.0%, the CO ([2]; 12% O2 + 40 ppm NO, n = 5) was 8.37 ± 1.68 L/min and the CVP ([2]; 12% O2 + 40 ppm NO, n = 5) was 5.2 ± 2.6 mmHg. The MAP ([2]; 12% O2 + 40 ppm NO, n = 5) was 86.0 ± 5.7 mmHg, the PCWP ([2]; 12% O2 + 40 ppm NO, n = 5) was 8.5 ± 2.2 mmHg and the PVR ([2]; 12% O2 + 40 ppm NO, n = 5) was 0.62 mmHg · min/l. The PaCO2 ([2]; 12% O2 + 40 ppm NO, n = 5) was 34 ± 5 mmHg, the PaO2 ([2]; 12% O2 + 40 ppm NO, n = 5) was 45 ± 5 mmHg and the SaO2 ([2]; 12% O2 + 40 ppm NO, n = 5) was 83.9 ± 5.7%. The PAP ([2]; 12% O2 + 40 ppm NO, n = 5, p < 0.01 vs previous situation) was 13.7 ± 1.7 mmHg, the “reversal of hypoxia-induced pulmonary vasoconstriction” value ([2]; 40 ppm NO, 12% v/v oxygen) was “reversed completely” and the “arterial saturation, pulse oximetry values and arterial partial pressure of oxygen” value ([3]; NO 20-80 ppm) was “modest increase in arterial saturation, pulse oximetry values, and arterial partial pressure of oxygen”. The “effect on systemic blood pressure” value ([3]; NO 20-80 ppm) was “no adverse effect on systemic blood pressure”, the “O2 SAT, PA” value ([3]; NO 20 ppm) was 70% and the “O2 SAT, POX (pulse oximeter), postductal” value ([3]; NO 20 ppm) was 91%. The “O2 SAT, RA” value ([3]; NO 20 ppm) was 67%, the “O2 SAT, postductal ART” value ([3]; NO 20 ppm) was 85% and the “mean pressure, ART” value ([3]; NO 20 ppm) was 45 mmHg. For the same molecule, the “mean pressure, PA” value ([3]; NO 20 ppm) was 50 mmHg, the “mean pressure, RA” value ([3]; NO 20 ppm) was 5 mmHg and the “postductal arterial PO2, ART” value ([3]; NO 20 ppm) was 46 mmHg. The “O2 SAT, PA” value ([3]; NO 40 ppm) was 74%, the “O2 SAT, POX (pulse oximeter), postductal” value ([3]; NO 40 ppm) was 93% and the “O2 SAT, RA” value ([3]; NO 40 ppm) was 72%. The “O2 SAT, postductal ART” value ([3]; NO 40 ppm) was 74%, the “mean pressure, ART” value ([3]; NO 40 ppm) was 43 mmHg and the “mean pressure, PA” value ([3]; NO 40 ppm) was 52 mmHg. The “mean pressure, RA” value ([3]; NO 40 ppm) was 4 mmHg, the “postductal arterial PO2, ART” value ([3]; NO 40 ppm) was 50 mmHg and the “O2 SAT, PA” value ([3]; NO 80 ppm) was 75%. For the same molecule, the “O2 SAT, RA” value ([3]; NO 80 ppm) was 74%, the “mean pressure, ART” value ([3]; NO 80 ppm) was 47 mmHg and the “mean pressure, PA” value ([3]; NO 80 ppm) was 53 mmHg. For the same molecule, the “mean pressure, RA” value ([3]; NO 80 ppm) was 5 mmHg, the “O2 SAT, POX (pulse oximeter), postductal” value ([3]; NO 80 ppm, first) was 94% and the “O2 SAT, postductal ART” value ([3]; NO 80 ppm, first) was 88%. For the same molecule, the “postductal arterial PO2, ART” value ([3]; NO 80 ppm, first) was 51 mmHg, the “O2 SAT, POX (pulse oximeter), postductal” value [3, 6] was 90% and the “O2 SAT, postductal ART” value [3, 6] was 85%. The “postductal arterial PO2, ART” value [3, 6] was 48 mmHg, the “arterial saturation and oxygen gas tension on discontinuation” value ([3]; after nitric oxide was discontinued) was “precipitously dropped” and the “oxygen saturation and blood gas tension on restart” value ([3]; nitric oxide restarted) was “succeeded in improving the oxygen saturation and blood gas tension”. The gas exchange ([3]; pulmonary hypertension and congenital heart disease) was “improving gas exchange”, the “oxygenation level on second weaning” value ([3]; subsequent attempt to wean off nitric oxide) was “deteriorated to dangerously low levels” and the “decrease of mean PAP” value ([4]; 18 ppm NO in oxygen) was 12-14 mm Hg. For the same molecule, the “mean PAP” value ([4]; 18 ppm NO in oxygen) was 38-42 mm Hg, the “reduction of PVR” value ([4]; 18 ppm NO in oxygen) was 44% and the wedge pressure ([4]; 18 ppm NO in oxygen, remaining constant) was ~15 mm Hg. The cardiac output ([4]; 18 ppm NO in oxygen, unchanged) was ~7 L/min, the “QVA /QT” value ([4]; 18 ppm NO) was 26% and the “QVA /QT” value ([4]; 36 ppm NO) was 33%. For the same molecule, the additional vasodilation ([4]; increasing NO concentration to 36 ppm) was 2-5 mm Hg, the “change of systemic arterial pressure” value ([4]; inhaled NO) was “no change of systemic arterial pressure” and the “PAP and RVEF” value ([4]; inhaled NO and i.v. PGI2, text) was “lowered PAP and improved RVEF”. The “PaO2, right-to-left shunt and VD /VT” value ([4]; inhaled NO, in contrast to PGI2) was “increased PaO2 and decreased right-to-left shunt and VD /VT”, the MAP ([4]; occasion #1, NO 18 ppm) was 78 mm Hg and the PAP ([4]; occasion #1, NO 18 ppm) was 42 mm Hg. For the same molecule, the PCWP ([4]; occasion #1, NO 18 ppm) was 15 mm Hg, the PaO2 ([4]; occasion #1, NO 18 ppm) was 146 torr and the “QA /QT” value ([4]; occasion #1, NO 18 ppm) was 26%. For the same molecule, the “VD /VT” value ([4]; occasion #1, NO 18 ppm) was 43%, the “low VD /Q” value ([4]; occasion #1, NO 18 ppm) was 1% and the MAP ([4]; occasion #1, NO 36 ppm) was 75 mm Hg. For the same molecule, the PAP ([4]; occasion #1, NO 36 ppm) was 37 mm Hg, the PCWP ([4]; occasion #1, NO 36 ppm) was 15 mm Hg and the PaO2 ([4]; occasion #1, NO 36 ppm) was 127 torr. The “QA /QT” value ([4]; occasion #1, NO 36 ppm) was 33%, the “VD /VT” value ([4]; occasion #1, NO 36 ppm) was 40% and the “low VD /Q” value ([4]; occasion #1, NO 36 ppm) was 0%. For the same molecule, the MAP ([4]; occasion #2, NO 18 ppm) was 88 mm Hg, the PAP ([4]; occasion #2, NO 18 ppm) was 38 mm Hg and the PCWP ([4]; occasion #2, NO 18 ppm) was 14 mm Hg. The PaO2 ([4]; occasion #2, NO 18 ppm) was 127 torr, the RVEF ([4]; occasion #2, NO 18 ppm) was 36% and the MAP ([4]; occasion #2, NO 36 ppm) was 86 mm Hg. For the same molecule, the PAP ([4]; occasion #2, NO 36 ppm) was 36 mm Hg, the PCWP ([4]; occasion #2, NO 36 ppm) was 12 mm Hg and the PaO2 ([4]; occasion #2, NO 36 ppm) was 113 torr. It also gave an RVEF ([4]; occasion #2, NO 36 ppm) of 39%.
